Data taken from PubChem BioAssay (NCI).
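The compound was tested at five concentrations on cells cultured in 96-well plates, with a 48-hour exposure period. The concentration for full growth arrest is given as TGI.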

Key:
Assay in all cases: NCI anticancer screen, dose series, 48 h
[1] = system: NCI-H23 lung
[2] = system: HS 578T breast
[3] = system: KM12 colon
[4] = system: HL-60(TB) leukemia
[5] = system: MALME-3M melanoma
[6] = system: SK-MEL-2 melanoma
[7] = system: SNB-75 CNS
[8] = system: RPMI-8226 leukemia
[9] = system: MOLT-4 leukemia
[10] = system: A549 NSCLC
[11] = system: T-47D breast
[12] = system: SK-MEL-28 melanoma
[13] = system: ACHN renal
[14] = system: MDA-N
[15] = system: SK-MEL-5 melanoma
[16] = system: OVCAR-8 ovarian
[17] = system: SW-620 colon
[18] = system: RXF 393 renal
[19] = system: MDA-MB-231 breast
[20] = system: OVCAR-4 ovarian
[21] = system: NCI-H522 lung
[22] = system: SNB-19 CNS
[23] = system: UO-31 renal
[24] = system: SK-OV-3 ovarian
[25] = system: K-562 leukemia
[26] = system: BT-549 breast
[27] = system: HCT-15 colon
[28] = system: MCF7 breast
[29] = system: LOX IMVI melanoma
[30] = system: MDA-MB-435
[31] = system: HOP-62 NSCLC
[32] = system: SN12C renal
[33] = system: M14 melanoma
[34] = system: A498 renal
[35] = system: PC-3 prostate
[36] = system: NCI/ADR-RES ovarian
[37] = system: SF-268 CNS
[38] = system: 786-0 renal
[39] = system: HT29 colon
[40] = system: DU-145 prostate
[41] = system: SR leukemia
[42] = system: COLO 205 colon
[43] = system: EKVX NSCLC
[44] = system: SF-295 CNS
[45] = system: CCRF-CEM leukemia
[46] = system: NCI-H226 lung
[47] = system: NCI-H460 lung
[48] = system: SF-539 CNS
[49] = system: HCC-2998 colon
[50] = system: HOP-92 NSCLC
[51] = system: HCT-116 colon
[52] = system: U251 CNS
[53] = system: OVCAR-5 ovarian
[54] = system: TK-10 renal
[55] = system: IGROV1 ovarian
[56] = system: UACC-257 melanoma
[57] = system: CAKI-1 renal
[58] = system: UACC-62 melanoma
[59] = system: OVCAR-3 ovarian

Cn1c(CO)ccc1-c1ccc(-c2ccc[se]2)[se]1
TGI [1]: 50.7 µM
TGI [2]: > 100 µM
TGI [3]: > 100 µM
TGI [4]: > 63.2 µM
TGI [5]: > 100 µM
TGI [6]: > 100 µM
TGI [7]: 37.2 µM
TGI [8]: > 71.6 µM
TGI [9]: 59.7 µM
TGI [10]: > 100 µM
TGI [11]: > 100 µM
TGI [12]: > 100 µM
TGI [13]: > 100 µM
TGI [14]: > 61.5 µM
TGI [15]: > 90.2 µM
TGI [16]: > 100 µM
TGI [17]: 77.8 µM
TGI [18]: 26.4 µM
TGI [19]: 60 µM
TGI [20]: 39.5 µM
TGI [21]: > 100 µM
TGI [22]: > 100 µM
TGI [23]: > 100 µM
TGI [24]: 27.2 µM
TGI [25]: > 43.3 µM
TGI [26]: > 81.4 µM
TGI [27]: > 100 µM
TGI [28]: > 52.4 µM
TGI [29]: > 100 µM
TGI [30]: 26.2 µM
TGI [31]: 55.1 µM
TGI [32]: 99.5 µM
TGI [33]: > 100 µM
TGI [34]: 0.187 µM
TGI [35]: > 100 µM
TGI [36]: > 100 µM
TGI [37]: > 100 µM
TGI [38]: > 71.2 µM
TGI [39]: > 100 µM
TGI [40]: 58 µM
TGI [41]: > 100 µM
TGI [42]: > 84.2 µM
TGI [43]: > 100 µM
TGI [44]: > 100 µM
TGI [45]: > 60.6 µM
TGI [46]: 4.78 µM
TGI [47]: > 100 µM
TGI [48]: 31.7 µM
TGI [49]: > 47.7 µM

COc1c(-c2nc3nc(N4CCN(C)CC4)ccc3[nH]2)cc(OC)c2c1nc(COC(C)=O)n2C
TGI [1]: > 100 µM
TGI [2]: > 100 µM
TGI [3]: > 100 µM
TGI [5]: > 100 µM
TGI [6]: > 100 µM
TGI [9]: > 100 µM
TGI [10]: > 100 µM
TGI [11]: > 100 µM
TGI [13]: > 100 µM
TGI [14]: > 100 µM
TGI [15]: > 100 µM
TGI [50]: > 100 µM
TGI [51]: > 100 µM
TGI [16]: > 100 µM
TGI [18]: > 100 µM
TGI [19]: > 100 µM
TGI [20]: > 100 µM
TGI [21]: > 100 µM
TGI [22]: > 100 µM
TGI [52]: > 100 µM
TGI [23]: > 100 µM
TGI [24]: > 100 µM
TGI [25]: > 100 µM
TGI [26]: > 100 µM
TGI [53]: > 100 µM
TGI [27]: > 100 µM
TGI [54]: 0.0263 µM
TGI [28]: > 100 µM
TGI [29]: > 100 µM
TGI [30]: > 100 µM
TGI [31]: > 100 µM
TGI [32]: > 100 µM
TGI [33]: > 100 µM
TGI [34]: > 100 µM
TGI [35]: > 100 µM
TGI [36]: > 100 µM
TGI [55]: > 100 µM
TGI [37]: > 100 µM
TGI [56]: > 100 µM
TGI [38]: > 100 µM
TGI [39]: > 100 µM
TGI [57]: > 100 µM
TGI [40]: > 100 µM
TGI [58]: > 100 µM
TGI [42]: > 100 µM
TGI [43]: > 100 µM
TGI [44]: > 100 µM
TGI [46]: > 100 µM
TGI [59]: > 100 µM
